From patent US20100010078A1, “METHODS OF TREATING ANDROGEN DEPENDENT PROSTATE CANCER BY ADMINISTERING AN ACTIVE PHARMACEUTICAL INGREDIENT BEING FISETIN, 3,3',4',7-TETRAHYDROXYFLAVONE OR A DERIVATIVE THEREOF, IN AN ORAL, TRANSDERMAL OR TOPICAL DOSAGE FORM” (priority 2008, published 2010)
Peptide text beside a SMILES is read from it. * marks the point of attachment. Cbz = O=C(OCc1ccccc1)*; CH2F = FC*

Legend:
caspase-3 and -7 = assay: Immunofluorescence staining for active caspase-3 and -7; assay type: cell-based, human; conditions: LNCaP, Z-VAD-FMK 40 μM for 2 h before fisetin 40 μM
Procedure: Immunofluorescence staining for active caspase-3 and -7. LNCaP cells were incubated with 40 μM concentration of the general caspase inhibitor Z-VAD-FMK for 2 h, followed by the addition of fisetin (40 μM; 48 h) and then harvested. ICT's Magic Red™ substrate-based MR-Caspase assay kit was used for the immunofluorescence staining for caspase-3 and -7. This kit utilizes the fluorophore, cresyl violet. As the 4 amino acid sequence, aspartylglutamylalanylaspartic acid (DEVD) is the optimal sequence for caspase -3 as well as -7, it was coupled to cresyl violet to create the caspase 3/7 substrate, MR-(DEVD)2. […] Following enzymatic hydrolysis at one or both of the aspartic acid amide linkage sites, the mono and non-substituted cresyl violet fluorophores fluoresce red and fluorescence photographs were obtained at 510-560 nm excitation and 610 nm emission.

caspase-3, -8 and -9 = assay: Western blot, active caspase-3, -8 and -9 in LNCaP cells; assay type: cell-based, human; conditions: Z-VAD-FMK 40 μM for 2 h before fisetin (10-60 μM), compared to fisetin treatment
Procedure: Protein extraction and western blotting. Following the treatment of LNCaP cells with fisetin (10-60 μM; 48 h), the media was aspirated, the cells were washed with cold PBS (pH 7.4), and ice-cold lysis buffer (50 mM Tris-HCl, 150 mM NaCl, 1 mM EGTA, 1 mM EDTA, 20 mM NaF, 100 mM Na3VO4, 0.5% NP-40, 1% Triton X-100, 1 mM PMSF (pH 7.4)) with freshly added protease inhibitor cocktail (Protease Inhibitor Cocktail Set III, Calbiochem, La Jolla, Calif.) over ice for 30 min. The cells were scraped and the lysate was collected in a microfuge tube and passed through a needle to break up the cell aggregates. […]
For western blotting, 30-50 μg protein was resolved over 8-12% polyacrylamide gels and transferred to a nitrocellulose membrane. The blot was blocked in blocking buffer (5% nonfat dry milk/1% Tween 20; in 20 mM TBS, pH 7.6) for 1 hr at room temperature, incubated with appropriate monoclonal or polyclonal primary antibody in blocking buffer for 1.5 h to overnight at 4° C., followed by incubation with anti-mouse or anti-rabbit secondary antibody horseradish peroxidase conjugate obtained from Amersham Life Science Inc. and detected by chemiluminescence and autoradiography using XAR-5 film obtained from Eastman Kodak Co. (Rochester, N.Y., USA). […]

immunofluorescence staining of active caspase-3 & -7 (caspase-3 and -7): significant decrease
SMILES: COC(=O)C[C@H](NC(=O)[C@H](C)NC(=O)[C@@H](NC(=O)OCc1ccccc1)C(C)C)C(=O)CF [Z-VAD-FMK, reference compound] (Cbz-Val-Ala-Asp(OMe)-CH2F)
protein expression of active caspase-3, -8 and -9 (caspase-3, -8 and -9): significant decrease
